According to patent US8853274B1, “Compositions and methods for targeting glioblastomas cells” (Vanderbilt University, priority 2011, dated 2014):

How the values were obtained:
Format in all cases: cell-based, human
T4302 CD133+ cells = assay: Cell growth / viability on day 5 (CellTiter-Glo); conditions: 100 nM; with or without 3 Gy radiation
Description: (§1) (A, B) T4302 CD133+ cells were treated with 100 nM RO4929097 (GSI) and/or 100 nM tipifarnib (FTI) for 4 hours prior to 3 Gy radiation. (A) Cell growth on day 5 and (B) caspase 3/7 activation on day 3 were determined as described in FIG. 4. #: p<0.001 by one-way ANOVA, combo vs. single agents. (C) The effects of GSIs and FTI against growth of T4302 CD133− cells were determined as described in panel A. (D, E) T4302 CD133+ cells were treated with GSI, FTI, or a 1:1 mixture at different concentrations (ranging from 3000 nM to ˜0.5 nM, 1:3 dilution)±3 Gy radiation. Cell viability was determined at 5 days after treatment in comparison to vehicle-treated groups. […] (F) T4302 CD 133+ cells were treated by GSI±FTI with a 2-fold dilution. Neurospheres were countered on day 10, and normalized to the vehicle-treated group.
GSC sensitivity to drug(s) was primarily measured as inhibition of cell viability (survival). Cells were treated with drugs alone or in combination±3-Gy radiation at indicated concentrations. Cell viability is determined by CellTiter-Glo kit (Promega) after 5-day incubation. IC50 values are calculated by the GraphPad Prism5 software.

T4302 CD133− cells = assay: Growth / survival of non-stem GBM cells; conditions: day 5
Description: as §1
Tumor cells are enzymatically dissociated from freshly collected subcutaneous xenograft tumors and cultured overnight before sorting. The CD133− and CD133+ fractions are separated either by magnetic sorting using the CD133 Microbead kit (Miltenyi Biotech), or labeled with APC-conjugated CD133 antibody (Miltenyi Biotech) and sorted by flow cytometry. CD133+ cells are maintained in neurobasal media supplemented with 2% B-27, 20 ng/ml EGF, and 20 ng/ml bFGF. […]

CD133+ GBM stem cells = assay: Growth inhibition within 5 days, panel of glioblastoma xenograft samples; conditions: 5-day period; in combination with 3 Gy radiation
Description: CD133+ cells were derived from multiple glioblastoma xenograft samples as indicated. The growth inhibitory effects by GSI and/or FTIs were determined as described in FIG. 5.
Therefore, effective killing of GBM stem cells may delay or even prevent tumor recurrence. […] In combination with radiation, GSIs or FTIs alone reduced cell numbers by ˜75%.

Akt = assay: Immunoblot of Akt phosphorylation in T4302 CD133+ cells; conditions: 200 nM, ±radiation, 2 days
Description: (A) T4302 CD133+ cells were treated with 200 nM RO4929097 (GSI), and irradiated 4 hours later. Cells were cultured for two days and lysed for immunoblotting. (B) T4302 CD133+ cells were treated with 200 nM GSI or FTI±radiation. Cells were lysed 2 days after treatment. (C) T4302 CD133+ cells were treated with 200 nM GSI±FTI for 24 hours, and left under normoxia or in 2% O2 for 16 hours before being lysed for immunoblotting.

[1] = tested on: T4302 CD133+ cells expressing RhoB shRNA; assay: Growth, caspase and Akt phosphorylation in RhoB shRNA cells; conditions: 100 nM
Description: (A) T4302 CD133+ cells were infected with lentivirus directing expression of a non-targeting shRNA or two RhoB specific shRNA. Cells were lysed for immunoblotting 3 days after infection. (B, C) Two days after infection, cells were selected with puromycin for two days, and plated in 96-well plates for growth curve assays. Cell growth was measured on days 1, 3 and 5 after plating, and normalized to the corresponding readout on day 1. (D-F) After lentiviral infection and puromycin selection as described above, T4302 CD133+ cells were treated with 100 nM GSI, FTI, ±3 Gy radiation and plated for subsequent experiments. (D) Relative growth on day 5, (E) caspase activation on day 3, and (F) protein levels on day 1 after treatment were determined as described in FIG. 4. *: p<0.001 by Student's t-test in comparison to the corresponding control groups.

CC(C)(C(=O)NCC(F)(F)C(F)(F)F)C(=O)N[C@@H]1C(=O)Nc2ccccc2-c2ccccc21 [RO4929097]
degree of growth inhibition after 5-day treatment, in words (T4302 CD133+ cells): weaker growth inhibition | effect on growth of CD133− non-stem GBM cells (T4302 CD133− cells): largely insensitive | growth inhibition / reduction of cell numbers (CD133+ GBM stem cells): ~75% | Akt activity (phosphorylation at serine 473 and threonine 308) (Akt): stronger Akt inhibition in irradiated cells than in unirradiated cells | Akt phosphorylation in RhoB knockdown cells compared with control cells ([1]; day 1): greater reduction of Akt phosphorylation | sensitivity of RhoB shRNA cells (growth day 5, caspase day 3) ([1]; ±3 Gy): highly sensitive
